Source: article PMC7143535, “Synthesis, Pharmacological and Structural Characterization of Novel Conopressins from Conus miliaris” (Marine Drugs, 2020)
Where two headings read alike, the source gives them in different places. Residues, ends and D or L forms follow the SMILES beside them.

Legend:
[1] = target: T1, human vasopressin2 receptor (hV2R) (Homo sapiens, UniProt P30518); assay: cell-based
T1 construct: host or cells: COS-1

[2] = target: T2, human vasopressin-1a receptor (hV1aR) (Homo sapiens, UniProt P37288); assay: cell-based
T2 construct: host or cells: COS-1
T2 sequence (P37288 whole entry): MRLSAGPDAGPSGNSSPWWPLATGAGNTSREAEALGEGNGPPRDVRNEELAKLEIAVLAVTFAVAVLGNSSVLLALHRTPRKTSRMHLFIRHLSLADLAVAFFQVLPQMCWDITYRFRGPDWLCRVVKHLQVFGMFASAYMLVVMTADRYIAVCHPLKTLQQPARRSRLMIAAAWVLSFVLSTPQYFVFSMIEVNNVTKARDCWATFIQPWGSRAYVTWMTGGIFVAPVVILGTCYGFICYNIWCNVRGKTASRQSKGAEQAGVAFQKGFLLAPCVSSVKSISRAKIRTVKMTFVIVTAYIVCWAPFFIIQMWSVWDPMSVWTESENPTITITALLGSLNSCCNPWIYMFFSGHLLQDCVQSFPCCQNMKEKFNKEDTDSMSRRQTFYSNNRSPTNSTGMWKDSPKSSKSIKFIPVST

[3] = target: T3, human vasopressin-1b receptor (hV1bR) (Homo sapiens, UniProt P47901); assay: cell-based; format: cell-based
T3 construct: host or cells: COS-1
T3 sequence (P47901 1-424): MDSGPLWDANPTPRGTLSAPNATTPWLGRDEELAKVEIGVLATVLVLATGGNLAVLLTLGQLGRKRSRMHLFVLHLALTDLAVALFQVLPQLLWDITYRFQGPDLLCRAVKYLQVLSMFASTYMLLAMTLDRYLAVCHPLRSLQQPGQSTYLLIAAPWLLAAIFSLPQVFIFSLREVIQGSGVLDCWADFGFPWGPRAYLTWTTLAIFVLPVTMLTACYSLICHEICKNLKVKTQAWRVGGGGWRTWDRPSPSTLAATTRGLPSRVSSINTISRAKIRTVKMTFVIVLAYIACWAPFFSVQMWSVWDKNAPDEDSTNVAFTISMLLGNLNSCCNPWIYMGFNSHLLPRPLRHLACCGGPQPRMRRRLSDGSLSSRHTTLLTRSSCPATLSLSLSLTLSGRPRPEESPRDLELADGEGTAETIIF

[4] = tested on: zebrafish vasopressin2 receptor (ZF V2R); format: cell-based, zebrafish (Danio rerio)
[5] = target: T4, human oxytocin receptor (hOTR) (Homo sapiens, UniProt P30559); assay: cell-based; format: cell-based
T4 construct: host or cells: COS-1
T4 sequence (P30559 1-389): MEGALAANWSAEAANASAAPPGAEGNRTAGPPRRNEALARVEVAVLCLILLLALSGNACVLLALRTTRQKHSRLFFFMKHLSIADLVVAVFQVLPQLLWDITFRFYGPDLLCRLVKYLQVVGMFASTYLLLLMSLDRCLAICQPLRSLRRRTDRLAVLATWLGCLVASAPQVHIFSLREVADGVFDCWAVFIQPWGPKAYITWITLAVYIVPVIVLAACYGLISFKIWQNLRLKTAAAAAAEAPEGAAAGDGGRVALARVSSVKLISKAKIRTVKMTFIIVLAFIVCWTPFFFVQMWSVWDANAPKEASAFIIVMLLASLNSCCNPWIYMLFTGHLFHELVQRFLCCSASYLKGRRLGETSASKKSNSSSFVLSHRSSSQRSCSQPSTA

[6] = target: T5, zebrafish oxytocin/isotocin receptor (ZF oxy/isoR) (Danio rerio, UniProt E4W699); assay: cell-based; format: cell-based
T5 construct: host or cells: COS-1
T5 sequence (E4W699 1-388): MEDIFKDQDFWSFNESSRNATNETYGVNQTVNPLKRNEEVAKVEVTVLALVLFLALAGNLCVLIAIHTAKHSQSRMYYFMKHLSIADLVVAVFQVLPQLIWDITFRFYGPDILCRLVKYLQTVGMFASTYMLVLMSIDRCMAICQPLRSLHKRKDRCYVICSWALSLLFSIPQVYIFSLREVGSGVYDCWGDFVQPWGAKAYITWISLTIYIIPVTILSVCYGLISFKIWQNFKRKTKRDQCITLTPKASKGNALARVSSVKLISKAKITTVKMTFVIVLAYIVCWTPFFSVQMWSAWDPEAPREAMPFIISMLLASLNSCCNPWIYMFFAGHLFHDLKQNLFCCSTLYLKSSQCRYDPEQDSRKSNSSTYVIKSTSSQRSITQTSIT

[7] = target: zebrafish vasopressin1-a1 receptor (ZF V1a1R); format: cell-based, zebrafish (Danio rerio)
[8] = target: zebrafish vasopressin1-a2 receptor (ZF V1a2R); format: cell-based, zebrafish (Danio rerio)

T1 sequence (P30518 whole entry): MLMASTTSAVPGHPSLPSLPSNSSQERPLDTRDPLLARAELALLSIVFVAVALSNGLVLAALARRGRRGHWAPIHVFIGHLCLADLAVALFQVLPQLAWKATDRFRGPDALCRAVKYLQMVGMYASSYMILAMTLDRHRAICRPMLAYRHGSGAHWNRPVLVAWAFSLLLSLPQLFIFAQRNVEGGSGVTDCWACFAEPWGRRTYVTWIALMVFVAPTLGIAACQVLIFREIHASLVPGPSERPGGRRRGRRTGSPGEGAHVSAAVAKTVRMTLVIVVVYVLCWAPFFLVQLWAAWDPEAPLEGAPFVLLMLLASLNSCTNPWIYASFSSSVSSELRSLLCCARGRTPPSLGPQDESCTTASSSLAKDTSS

CC[C@H](C)[C@@H]1NC(=O)[C@H](Cc2ccc(O)cc2)NC(=O)[C@@H](N)CSSC[C@@H](C(=O)N2CCC[C@H]2C(=O)N[C@@H](CCCNC(=N)N)C(=O)NCC(N)=O)NC(=O)[C@H](CC(N)=O)NC(=O)[C@H](CCC(N)=O)NC1=O [Vasotocin, vasotocin] (HELM PEPTIDE1{C.Y.I.Q.N.C.P.R.G.[am]}$PEPTIDE1,PEPTIDE1,1:R3-6:R3$$$V2.0; N-terminus assumed)
EC50 [1]: 0.5 nM | Selectivity hV2R [1]: hV2R (x28945.5) > ZF V1a1R (x38.8) > ZF oxy (x18.7) > hOTR(x9.8) > ZF V1a2R (x5.7) > hV1bR (x3.7) > ZF V2R (x3.1) > hV1aR | fold more potent on hV2R than on ZF V2R [1]: ~10,000 fold | EC50 [2]: 15.9 nM | EC50 [3]: 4.26 nM | Selectivity hV1bR [3]: hV2R (x28945.5) > ZF V1a1R (x38.8) > ZF oxy (x18.7) > hOTR(x9.8) > ZF V1a2R (x5.7) > hV1bR (x3.7) > ZF V2R (x3.1) > hV1aR | Selectivity ZF V2R [4]: hV2R (x28945.5) > ZF V1a1R (x38.8) > ZF oxy (x18.7) > hOTR(x9.8) > ZF V1a2R (x5.7) > hV1bR (x3.7) > ZF V2R (x3.1) > hV1aR | EC50 ([4]; read-out: EC50 / affinity at ZF V2R): 5000 nM | EC50 ([4]; read-out: Mean EC50 ZF V2R): 5.07 nM | EC50 [5]: 1.62 nM | Selectivity hOTR [5]: hV2R (x28945.5) > ZF V1a1R (x38.8) > ZF oxy (x18.7) > hOTR(x9.8) > ZF V1a2R (x5.7) > hV1bR (x3.7) > ZF V2R (x3.1) > hV1aR | EC50 [6]: 0.85 nM | Selectivity ZF oxy [6]: hV2R (x28945.5) > ZF V1a1R (x38.8) > ZF oxy (x18.7) > hOTR(x9.8) > ZF V1a2R (x5.7) > hV1bR (x3.7) > ZF V2R (x3.1) > hV1aR | EC50 [7]: 0.41 nM | Selectivity ZF V1a1R [7]: hV2R (x28945.5) > ZF V1a1R (x38.8) > ZF oxy (x18.7) > hOTR(x9.8) > ZF V1a2R (x5.7) > hV1bR (x3.7) > ZF V2R (x3.1) > hV1aR | EC50 [8]: 2.77 nM | Selectivity ZF V1a2R [8]: hV2R (x28945.5) > ZF V1a1R (x38.8) > ZF oxy (x18.7) > hOTR(x9.8) > ZF V1a2R (x5.7) > hV1bR (x3.7) > ZF V2R (x3.1) > hV1aR
